Reference: paper PMC7206208, “In vivo data: treatment with the F11R/JAM-A peptide 4D decreases mortality and reduces the generation of atherosclerotic plaques in ApoE-deficient mice” (Data in Brief, 2020)
Non-standard residues stand in square brackets, D forms with d. Residues, ends and D or L forms follow the SMILES beside them.

How the values were obtained:
[1] = tested on: human platelets (in platelet-rich plasma); assay: ADP-induced platelet aggregation in platelet-rich plasma (turbidimetric); type: cell-based; conditions: for maximal platelet aggregation [%] in response to 10 µM ADP: PRP, 37°C, 2 min pre-incubation, mean ± SD, n=3-7
Method: Fig. 4 Test of the effect of peptide 4D on the ADP-induced aggregation of human platelets (in platelet-rich plasma). Fig. 4A. This figure depicts a representative tracing of platelet aggregation induced by ADP (2µM) in the presence of peptide 4D (P4D; 500µM, final concentration), in comparison to the ADP-induced platelet aggregation in the absence of peptide 4D (control). Fig. 4B. This figure depicts a representative tracing of platelet aggregation induced by ADP (10µM) in the presence of peptide 4D (P4D, 500µM final concentration), in comparison to the ADP-induced platelet aggregation in the absence of peptide 4D (control).
Platelet aggregation in platelet-rich plasma (PRP) was carried-out by using the turbidimetric method in a platelet aggregometer (Chronolog, Haverstown, PA). Aliquots of the PRP were maintained at 37°C. The effect of peptide 4D on platelet aggregation was examined by utilizing three concentrations of peptide 4D (final concentrations of 100µM, 250µM and 500 µM). The PRP was incubated for 2 minutes with peptide 4D prior to the addition of ADP at final concentrations of 2µM (subthreshold concentration) or 10µM, for the initiation of platelet aggregation.

inflamed endothelium = assay: Platelet adhesion to walls of blood vessels, intravital microscopy; type: in vivo, mice; conditions: intravital microscopy videos, arteriole and venule
Text: The F11 Receptor (F11R/JAM-A; Junctional Adhesion Molecule-A; JAM-A; F11R) is a cell adhesion protein present on the surface of circulating platelets and located within the tight junctions of endothelial and epithelial cells. The data presented here confirm in-vivo evidence for the critical role of F11R/JAM-A in the formation of atherosclerotic plaques in ApoE^-/- mice and provide further strong experimental support for our work in Babinska et al. (2019). […] These mice were euthanized, and at the same time, two mice obtained from the peptide 4D-treated group were randomly-selected and euthanized, and their tissues examined histologically in comparison to the controls. […] The data presented in Fig. 3, compare the overall health and physical appearance of 10^1/2 months old ApoE^-/- mice following their termination of a 4- month injection period with either peptide 4D or the vehicle. […] Data of Fig. 5 display the pharmacokinetic analysis (PK) of peptide 4D in vivo. Data display by videos: videos depicting platelet adhesion to the walls of blood vessels using the Intravital Microscopy System are provided and available in this article as the Supplemental Files. […]

[2] = tested on: inflamed endothelial cells; conditions: in culture; the authors' earlier work; cited from earlier work
Text: The data in this article focus on the F11 Receptor (F11R/JAM-A; Junctional Adhesion Molecule-A; JAM-A, F11R), a cell adhesion protein constitutively expressed on the membrane surface of circulating platelets and localized within the tight junctions of healthy endothelial cells (ECs). Previous reports have shown that F11R/JAM-A plays a critical role in the adhesion of platelets to an inflamed endothelium due to its’ pathological expression on the luminal surface of the cytokine-inflamed endothelium. Since platelet adhesion to an inflamed endothelium is an early step in the development of athero ...

platelets = assay: M.Ab.F11-induced platelet aggregation in vitro; type: cell-based; conditions: peptide 4D 0.3 mg (670 µg/ml), from dose-response
[3] = mouse, in vivo
Method: The concentration of peptide 4D was measured in the plasma at various time points, and is expressed in µg/ml. […] Time points of 15 min, followed by 1, 2, 4, 5, and 24 hours after the administration of peptide 4D were selected to generate the concentration of Cmax, Tmax, area under the plasma concentration time curve (AUC), drug clearance, terminal elimination half-life, and volume of distribution.
Drug pharmacokinetics (PK) in vivo is a key requirement for the evaluation of the stability and availability of peptide 4D, as a potential compound for use in the next phase of our investigations. Accordingly, PK data of peptide 4D were obtained by the Services of Bio Quant, San Diego, CA. Thus far, a single dose of the F11R peptide 4D and a time perfusion course were performed in Balb/c mice. Time points of 15 min, followed by 1, 2, 4, 5, and 24 hr after the administration of peptide 4D to animals, were selected to generate concentration vs time curves thereby allowing for the determination of the PK parameters of maximal concentration (Cmax), maximal time (Tmax), area under the plasma concentration time curve (AUC), drug clearance, terminal elimination half-life, and volume of distribution of peptide 4D.

ApoE-/- mice = assay: Chronic treatment of ApoE-/- mice: atherosclerotic plaques and physical appearance; type: in vivo, mouse
Method: Female Apo E^-/- mice (six weeks old) of a C57BL/6J background, (Jackson Laboratory, Bar Harbor, Me), were divided into two separately-housed groups. Group 1 was treated with peptide 4D by daily, intraperitoneal injections with peptide 4D (4.3 mg/200µl) for a 3 month period. Group 2 was injected daily with an equivalent amount of diluent vehicle (200µl of 0.9% saline) for the same 3- month period. All animals were fed a regular Rodent Diet (Calories provided by protein 28.1%, fat 12.13% and carbohydrates 59.8%) for two months, then the diet was switched to a Western-type diet (TD.88137 Adjusted Calories Diet (42% from fat) (0.15% cholesterol, 21% anhydrous milk fat) (Harlan Laboratories Inc.) to induce hypercholesterolemia for a period of one month, [2]. Following 3 month of injections with either the F11R peptide 4D or the vehicle, saline, the animals were euthanized. The aortas and hearts were isolated, dissected, and the atherosclerotic lesions were analyzed.
Following euthanasia, the aortas were prepared for dissection and the aortic arches were photographed. Following dissection, en face lesion surface area assay was performed on the aortas and hearts as previously described, [4], [5]. The dissected aortas were stained with Oil-Red-O stain modified from previously described methods, [4], [6]. […] The total intimal lesion area and the necrotic core area (NE) per cross section were quantified by taking the average of 6 sections spaced 30 µm apart, beginning at the base of the aortic root. The necrotic core areas, acellular/anuclear areas (negative for hematoxylin-positive nuclei, white areas of lesion) were measured per cross section from the same slides where total intimal lesion area was measured. […] Lesion areas or necrotic areas (white areas of lesion) where measured and summarized using software Image-J. The aortas were fixed in PBS/4% formaldehyde for 3 days, washed in PBS followed by staining with 1.8% Oil-Red-O in 60% isopropanol for 15 min at 22°C, then de-stained in 60% isopropanol for 5 min. […]

Tmax [3]: 18 min | half-life [3]: > 210 min
Compound: CC(C)[C@H](NC(=O)[C@H](CO)NC(=O)[C@H](N)CCCCN)C(=O)N[C@H](C(=O)N[C@H](CCCNC(=N)N)C(=O)N[C@@H](CCC(=O)O)C(=O)N[C@@H](CC(=O)O)C(=O)N[C@H](C(=O)NCC(=O)N[C@H](C(=O)N[C@@H](Cc1ccc(O)cc1)C(=O)N[C@H](C(=O)N[C@@H](CS)C(N)=O)[C@@H](C)O)[C@@H](C)O)[C@@H](C)O)[C@@H](C)O [peptide 4D] (H-[dK]SVT[dR]EDTGTYTC-NH2; N-terminus and C-terminus assumed)
effect on ADP-induced platelet aggregation ([1]; Fig. 4 and Table 1, ADP 2 or 10 µM, peptide 100-500 µM): lack of an inhibitory effect | maximal platelet aggregation [%] in response to 10 µM ADP ([1]; P4D 100 µM): 70 ± 12% | maximal platelet aggregation [%] in response to 10 µM ADP ([1]; P4D 250 µM): 73 ± 13% | maximal platelet aggregation [%] in response to 10 µM ADP ([1]; P4D 500 µM): 74 ± 20% | adhesion of platelets onto the inflamed endothelium (inflamed endothelium): significant blockade | adhesion of platelets to the inflamed endothelial cells [2]: could be blocked | inhibition of M.Ab.F11-induced platelet aggregation (platelets): completely inhibited | plaque accumulation in the aortic arch and the whole aorta (ApoE-/- mice; daily i.p. 215 mg/kg (4.3 mg/200 µl) for 3 months, versus saline controls, two mice per group, Fig. 2): much diminished plaque accumulation | external physical appearance (ApoE-/- mice; daily i.p. for 3 months, versus saline controls, Fig. 1): healthy | skin lesion on the chest (ApoE-/- mice; daily i.p. for 4 months, then stopped, observed at 10 1/2 months of age, Fig. 3B): lack of lesion
